Earlier results, collected in publication PMC12141164, “Phase-1 study of vamotinib (PF-114), a 3rd generation BCR::ABL1 tyrosine kinase-inhibitor, in chronic myeloid leukaemia” (Annals of Hematology, 2025).
Read-outs that look alike come from different tables or passages of the source.

Key:
Details in all cases: cited from earlier work
TAK1 = test system: TAK1
VEGFR2 = test system: VEGFR2
ZAK = test system: ZAK
TIE2 = test system: TIE2
EPHA6 = test system: EPHA6
PDGFRa = test system: PDGFRa
EPHA7 = test system: EPHA7
[1] = parameters: method as in PMID 35982483

| Structure (SMILES) | inhibition of TAK1 (TAK1; kinase inhibition profiles) | inhibition of VEGFR2 (VEGFR2; kinase inhibition profiles) | inhibition of ZAK (ZAK; kinase inhibition profiles) | inhibition of TIE2 (TIE2; kinase inhibition profiles) | inhibition of EPHA6 (EPHA6; kinase inhibition profiles) | inhibition of PDGFRa (PDGFRa; kinase inhibition profiles) | inhibition of EPHA7 (EPHA7; kinase inhibition profiles) | inhibition of TAK1 (TAK1) | most common non-hematologic adverse reaction ([1]; clinical evaluation) | drug related cardiovascular adverse events ([1]; recent clinical studies) | inhibition of VEGFR2 (VEGFR2) | inhibition of ZAK (ZAK) | inhibition of TIE2 (TIE2) | inhibition of EPHA6 (EPHA6) | inhibition of PDGFRa (PDGFRa; off-target kinases) | inhibition of EPHA7 (EPHA7) |
| --- | --- | --- | --- | --- | --- | --- | --- | --- | --- | --- | --- | --- | --- | --- | --- | --- |
| Cc1ccc(C(=O)Nc2ccc(CN3CCN(C)CC3)c(C(F)(F)F)c2)cc1C#Cc1cnc2cccnn12 [ponatinib] | inhibition | inhibition | inhibition | inhibition | inhibition | potently inhibited | inhibition |  |  |  |  |  |  |  |  |  |
| Cc1ccc(C(=O)Nc2ccc(CN3CCN(C)CC3)c(C(F)(F)F)c2)cc1C#Cc1cnc2[nH]ncc2c1 [olverembatinib] |  |  |  |  |  |  |  | potent inhibitor | skin pigmentation | some drug related cardiovascular adverse events, including vascular occlusions | not | potent inhibitor | potent inhibitor | not | among the off-target kinases | not |
